Test results: publication PMC9610298, “Synthesis, Biological Evaluation and Machine Learning Prediction Model for Fluorinated Cinchona Alkaloid-Based Derivatives as Cholinesterase Inhibitors” (Pharmaceuticals, 2022)

Assays:
recombinant human AChE = recombinant human AChE (Homo sapiens, UniProt P22303); assay: Reversible inhibition of AChE, Ellman method, enzyme-inhibitor dissociation constants; assay type: biochemical; details: ± standard error; ATCh substrate, 25 °C, pH 7.4
Description: (§1) As a source of BChE, a purified human BChE, and as AChE, a recombinant human AChE was used, both enzymes kindly provided by Dr. F. Nachon (Département de Toxicologie, Armed Forces Biomedical Research Institute, France). The concentrated stocks of enzymes (BChE: 5.6 µM; AChE: 0.20 µM) were diluted in a phosphate sodium buffer 0.1 M (pH 7.4) containing 0.1% BSA before starting the experiments.
(§2) Enzyme activities were measured spectrophotometrically by the Ellman method at […] using 0.30 mM DTNB as thiol reagent, ATCh as substrate and water in 0.1 M phosphate buffer, pH 7.4. For the inhibition measurements, the reaction mixture contained tested compounds instead of water. […] Measurements were done at 25 °C on a Tecan Infinite M200Pro plate reader (Austria). A detailed description of measurement protocol was described previously.
(§3) The reversible inhibition of BChE and AChE by tested compounds was measured by determining the decrease of enzyme activity towards ATCh in their presence. The activities of the enzymes were measured at different substrate concentrations ([S]; 0.050–0.50 mM) in the absence (v0) and presence (vi) of the given tested compounds concentration ([I]; 0.050–200 µM, depending on the compound) selected to inhibit the enzymes for 20–80%. At least three concentrations of inhibitors for each substrate concentration were used in at least three experiments. The apparent dissociation inhibition constant (Ki,app) was calculated applying the Hunter-Downs equation and linear regression analysis (1):(1) Ki,app=vi/v0−vi⋅I=KI+KI/KS⋅S where y-intercept determines the enzyme-inhibitor dissociation constants (K(I)), while x-intercept determines the enzyme-substrate dissociation constant, K(S). The determination of kinetic constants was carried out using the GraphPadPrism 6.0 program (GraphPad Software, San Diego, CA, USA).

purified human BChE [1] = target: T1, purified human BChE (Homo sapiens, UniProt P06276); assay: Reversible inhibition of BChE, Ellman method, enzyme-inhibitor dissociation constants; assay type: biochemical; details: for SI, selective index Ki(AChE)/Ki(BChE): times higher preference for BChE over AChE; for Ki: ± standard error, ATCh substrate, 25 °C, pH 7.4
T1 sequence (P06276 29-602): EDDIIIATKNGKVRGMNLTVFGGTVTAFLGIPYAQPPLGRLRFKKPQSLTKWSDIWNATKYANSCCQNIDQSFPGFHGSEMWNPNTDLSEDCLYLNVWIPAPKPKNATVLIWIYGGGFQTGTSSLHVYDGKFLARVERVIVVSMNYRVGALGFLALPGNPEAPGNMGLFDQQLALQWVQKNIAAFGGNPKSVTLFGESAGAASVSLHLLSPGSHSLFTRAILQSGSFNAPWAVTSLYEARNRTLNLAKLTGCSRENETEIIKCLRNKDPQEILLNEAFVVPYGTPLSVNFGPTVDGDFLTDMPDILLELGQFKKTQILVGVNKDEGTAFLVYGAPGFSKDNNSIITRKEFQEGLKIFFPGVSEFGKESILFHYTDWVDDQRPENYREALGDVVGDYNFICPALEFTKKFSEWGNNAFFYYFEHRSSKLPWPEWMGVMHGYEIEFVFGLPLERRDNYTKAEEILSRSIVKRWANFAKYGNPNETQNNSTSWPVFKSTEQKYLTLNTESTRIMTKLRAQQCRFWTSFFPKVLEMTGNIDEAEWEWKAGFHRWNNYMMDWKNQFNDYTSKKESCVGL
Description: as §1, §2, §3

purified human BChE [2] = target: T1, purified human BChE; details: earlier determined; cited from earlier work

Chain of recombinant human AChE (P22303 32-614): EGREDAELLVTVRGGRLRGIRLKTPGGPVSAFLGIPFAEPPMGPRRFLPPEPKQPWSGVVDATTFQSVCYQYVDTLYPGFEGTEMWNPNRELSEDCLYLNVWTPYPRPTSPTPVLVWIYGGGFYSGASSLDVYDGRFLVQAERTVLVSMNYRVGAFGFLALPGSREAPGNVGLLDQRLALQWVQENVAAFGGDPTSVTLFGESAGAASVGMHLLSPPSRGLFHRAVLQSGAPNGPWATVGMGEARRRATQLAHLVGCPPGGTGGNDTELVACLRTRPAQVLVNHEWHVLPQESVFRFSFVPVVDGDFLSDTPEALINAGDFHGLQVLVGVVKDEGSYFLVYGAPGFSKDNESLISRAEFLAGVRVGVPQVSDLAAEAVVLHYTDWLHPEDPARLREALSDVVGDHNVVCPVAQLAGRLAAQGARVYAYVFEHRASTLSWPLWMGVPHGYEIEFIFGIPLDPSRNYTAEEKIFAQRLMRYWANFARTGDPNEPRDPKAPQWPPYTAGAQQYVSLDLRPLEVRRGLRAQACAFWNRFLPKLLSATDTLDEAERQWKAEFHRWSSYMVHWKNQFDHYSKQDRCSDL

| Structure (SMILES) | Ki (recombinant human AChE) [µM] | SI, selective index Ki(AChE)/Ki(BChE) (purified human BChE [1]) | Ki (purified human BChE [1]) [µM] | selectivity to BChE over AChE (times) (purified human BChE [2]) |
| --- | --- | --- | --- | --- |
| C=CC1C[N+]2(Cc3ccccc3)CCC1C[C@@H]2[C@@H](O)c1ccnc2ccccc12 (stereo partly shown) [CN Bzl] | 121 ± 12 | 42 | 2.9 ± 0.3 | – |
| CCC1C[N+]2(Cc3cccc(C(F)(F)F)c3)CCC1C[C@H]2[C@H](O)c1ccnc2ccccc12 (stereo partly shown) [DHCD 3CF3, N-(3-trifluoromethylbenzyl)-10,11-dihydrocinchonidinium bromide] | 25 ± 1 | 18 | 1.4 ± 0.1 | – |
| CCC1C[N+]2(Cc3cccc(F)c3)CCC1C[C@H]2[C@H](O)c1ccnc2ccccc12 (stereo partly shown) [DHCD 3F] | 27 ± 2 | 84 | 0.3 ± 0.02 | – |
| CCC1C[N+]2(Cc3cccc(OC(F)(F)F)c3)CCC1C[C@H]2[C@H](O)c1ccnc2ccccc12 (stereo partly shown) [DHCD 3OCF3, N-(3-trifluoromethoxybenzyl)-10,11-dihydrocinchonidinium bromide] | 36 ± 1 | 5 | 6.8 ± 0.3 | – |
| CCC1C[N+]2(Cc3ccc(C(F)(F)F)cc3)CCC1C[C@H]2[C@H](O)c1ccnc2ccccc12 (stereo partly shown) [DHCD 4CF3] | 15 ± 1 | 5 | 3.2 ± 0.2 | – |
| CCC1C[N+]2(Cc3ccc(F)cc3)CCC1C[C@H]2[C@H](O)c1ccnc2ccccc12 (stereo partly shown) [DHCD 4F, N-(4-fluorobenzyl)-10,11-dihydrocinchonidinium bromide] | 31 ± 1 | 8 | 4.3 ± 0.2 | – |
| CCC1C[N+]2(Cc3ccc(OC(F)(F)F)cc3)CCC1C[C@H]2[C@H](O)c1ccnc2ccccc12 (stereo partly shown) [DHCD 4OCF3, N-(4-trifluoromethoxybenzyl)-10,11-dihydrocinchonidinium bromide] | 17 ± 1 | 3 | 5.9 ± 0.2 | – |
| CCC1C[N+]2(Cc3ccccc3)CCC1C[C@H]2[C@H](O)c1ccnc2ccccc12 (stereo partly shown) [DHCD Bzl] | 4.8 ± 0.4 | 12 | 0.4 ± 0.02 | – |
| CCC1CN2CCC1CC2C(O)c1ccnc2ccccc12 (stereo not shown) [DHCD, 10,11-dihydrocinchonidine] | 206 ± 6 | 11 | 19 ± 2 | – |
| CCC1C[N+]2(Cc3cccc(C(F)(F)F)c3)CCC1C[C@@H]2[C@@H](O)c1ccnc2ccccc12 (stereo partly shown) [DHCN 3CF3] | 41 ± 2 | 34 | 1.2 ± 0.05 | – |
| CCC1C[N+]2(Cc3cccc(F)c3)CCC1C[C@@H]2[C@@H](O)c1ccnc2ccccc12 (stereo partly shown) [DHCN 3F, N-(3-fluorobenzyl)-10,11-dihydrocinchoninium bromide] | 20 ± 1 | 20 | 1.2 ± 0.1 | – |
| CCC1C[N+]2(Cc3cccc(OC(F)(F)F)c3)CCC1C[C@@H]2[C@@H](O)c1ccnc2ccccc12 (stereo partly shown) [DHCN 3OCF3, N-(3-trifluoromethoxybenzyl)-10,11-dihydrocinchoninium bromide] | 68 ± 1 | 52 | 1.3 ± 0.5 | – |
| CCC1C[N+]2(Cc3ccc(C(F)(F)F)cc3)CCC1C[C@@H]2[C@@H](O)c1ccnc2ccccc12 (stereo partly shown) [DHCN 4CF3] | 18 ± 1 | 9 | 1.6 ± 0.1 | – |
| CCC1C[N+]2(Cc3ccc(F)cc3)CCC1C[C@@H]2[C@@H](O)c1ccnc2ccccc12 (stereo partly shown) [DHCN 4F, N-(4-fluorobenzyl)-10,11-dihydrocinchoninium bromide] | 64 ± 2 | 40 | 1.6 ± 0.1 | – |
| CCC1C[N+]2(Cc3ccc(OC(F)(F)F)cc3)CCC1C[C@@H]2[C@@H](O)c1ccnc2ccccc12 (stereo partly shown) [DHCN 4OCF3, N-(4-trifluoromethoxybenzyl)-10,11-dihydrocinchoninium bromide] | 22 ± 1 | 10 | 2.2 ± 0.1 | – |
| CCC1C[N+]2(Cc3ccccc3)CCC1C[C@@H]2[C@@H](O)c1ccnc2ccccc12 (stereo partly shown) [DHCN Bzl] | 21 ± 1 | 23 | 0.9 ± 0.04 | – |
| C=CC1C[N+]2(Cc3ccc(Br)cc3)CCC1CC2C(O)c1ccnc2ccccc12 (stereo not shown) [N-para-bromobenzyl CD derivative] | – | – | – | 510 |
